Measurements reported in PubChem BioAssay AID651948 (The Scripps Research Institute Molecular Screening Center, 2012).

Biological target: Heat shock 70 kDa protein 1A (Homo sapiens) (UniProt P0DMV8)
Assay: PubChem AID 651948
Details: HeLa Hsp70 protein level, western blot, 8 h; at 10 µM; stronger effect = higher value

Chain of Heat shock 70 kDa protein 1A (Homo sapiens) (P0DMV8 whole entry, looked up): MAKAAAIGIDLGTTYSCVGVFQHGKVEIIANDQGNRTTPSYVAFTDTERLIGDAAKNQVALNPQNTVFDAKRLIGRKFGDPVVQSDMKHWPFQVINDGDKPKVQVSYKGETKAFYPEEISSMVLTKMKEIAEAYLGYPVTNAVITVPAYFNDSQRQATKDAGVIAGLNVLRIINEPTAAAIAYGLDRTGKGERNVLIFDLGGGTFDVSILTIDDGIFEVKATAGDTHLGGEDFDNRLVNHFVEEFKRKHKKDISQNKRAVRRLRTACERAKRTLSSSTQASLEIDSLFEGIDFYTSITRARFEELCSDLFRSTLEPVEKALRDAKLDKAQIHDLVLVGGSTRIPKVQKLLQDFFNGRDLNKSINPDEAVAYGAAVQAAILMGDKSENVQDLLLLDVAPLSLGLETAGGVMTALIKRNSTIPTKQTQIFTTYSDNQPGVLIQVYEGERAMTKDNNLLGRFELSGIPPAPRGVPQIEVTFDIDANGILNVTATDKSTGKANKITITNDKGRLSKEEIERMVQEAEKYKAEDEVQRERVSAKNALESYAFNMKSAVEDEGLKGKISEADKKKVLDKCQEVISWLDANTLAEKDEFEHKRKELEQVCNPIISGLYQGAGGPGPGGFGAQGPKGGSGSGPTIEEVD

## COc1ccc(/C=C/C=C2C(=O)NC(=O)NC2=O)cc1
  fold induction: 1.8
